From publication PMC6046546, “Gossypol Inhibits Non-small Cell Lung Cancer Cells Proliferation by Targeting EGFR^L858R/T790M” (Frontiers in Pharmacology, 2018)

Assays:
EGFR^WT = EGFR^WT (Homo sapiens, UniProt P00533); assay: ELISA kinase activity assay, poly(Glu,Tyr) […] substrate, […] ATP; format: biochemical
EGFR^L858R/T790M = target: T1, EGFR^L858R/T790M (Homo sapiens, UniProt P00533, L858R/T790M); assay: ELISA kinase activity assay, recombinant kinase, poly(Glu,Tyr) […] substrate, […] ATP; format: biochemical
T1 construct: kinase domain
T1 sequence (P00533 696-1022 T790M/L858R limits assumed): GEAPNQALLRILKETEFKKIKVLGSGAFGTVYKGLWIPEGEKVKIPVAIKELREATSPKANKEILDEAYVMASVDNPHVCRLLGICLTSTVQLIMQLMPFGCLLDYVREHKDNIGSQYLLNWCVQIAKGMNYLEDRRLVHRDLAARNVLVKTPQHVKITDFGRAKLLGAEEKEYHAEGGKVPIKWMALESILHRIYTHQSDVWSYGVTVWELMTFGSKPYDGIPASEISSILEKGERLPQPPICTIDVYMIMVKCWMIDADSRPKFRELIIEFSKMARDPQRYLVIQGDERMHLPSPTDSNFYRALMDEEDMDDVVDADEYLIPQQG

Sequence of EGFR^WT (P00533 25-1210): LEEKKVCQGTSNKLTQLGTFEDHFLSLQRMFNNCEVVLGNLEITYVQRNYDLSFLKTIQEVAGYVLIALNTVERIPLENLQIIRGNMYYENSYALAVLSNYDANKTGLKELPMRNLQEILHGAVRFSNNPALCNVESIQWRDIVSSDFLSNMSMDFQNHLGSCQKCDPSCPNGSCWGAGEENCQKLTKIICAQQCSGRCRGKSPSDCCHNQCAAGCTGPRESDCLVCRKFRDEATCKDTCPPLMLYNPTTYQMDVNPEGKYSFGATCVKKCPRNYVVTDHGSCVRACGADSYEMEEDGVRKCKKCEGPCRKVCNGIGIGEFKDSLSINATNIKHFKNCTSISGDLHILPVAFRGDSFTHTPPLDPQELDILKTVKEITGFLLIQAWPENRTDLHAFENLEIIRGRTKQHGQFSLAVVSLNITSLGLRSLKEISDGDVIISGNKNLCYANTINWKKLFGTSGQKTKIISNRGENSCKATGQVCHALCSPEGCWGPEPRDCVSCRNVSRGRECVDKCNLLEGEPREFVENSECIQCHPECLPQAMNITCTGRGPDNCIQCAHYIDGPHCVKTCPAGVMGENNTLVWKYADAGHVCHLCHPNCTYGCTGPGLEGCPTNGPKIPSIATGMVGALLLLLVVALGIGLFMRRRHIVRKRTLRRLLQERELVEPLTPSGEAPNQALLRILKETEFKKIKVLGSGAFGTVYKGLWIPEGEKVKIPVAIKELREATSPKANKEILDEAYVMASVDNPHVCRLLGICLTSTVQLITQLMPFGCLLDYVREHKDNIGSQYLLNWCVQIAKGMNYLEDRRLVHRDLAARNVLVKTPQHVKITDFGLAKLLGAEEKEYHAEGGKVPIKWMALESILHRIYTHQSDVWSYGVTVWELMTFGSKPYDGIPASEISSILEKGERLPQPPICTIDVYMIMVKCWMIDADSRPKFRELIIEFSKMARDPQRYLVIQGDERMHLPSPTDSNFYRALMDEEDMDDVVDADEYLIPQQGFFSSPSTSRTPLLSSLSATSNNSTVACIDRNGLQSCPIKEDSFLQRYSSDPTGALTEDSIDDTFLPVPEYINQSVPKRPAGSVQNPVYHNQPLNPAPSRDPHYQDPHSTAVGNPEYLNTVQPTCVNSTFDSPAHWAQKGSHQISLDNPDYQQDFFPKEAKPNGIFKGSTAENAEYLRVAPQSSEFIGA

Cc1cc2c(C(C)C)c(O)c(O)c(C=O)c2c(O)c1-c1c(C)cc2c(C(C)C)c(O)c(O)c(C=O)c2c1O [gossypol]
EC50 (EGFR^WT): 253 ± 26.9 nM
EC50 (EGFR^L858R/T790M): 150 ± 30.7 nM
